In patent US6538028B1, “Method for inhibiting complement activation” (Vanderbilt University, priority 2000, dated 2003):
Several values for one entry are separate records, joined by “and”; a condition that tells them apart may be missing. Equal values may be shown once. Read-outs that look alike come from different tables or passages of the source. Marks after values point to notes of the source that are not given here.

Assays:
[1] = system: piglet lungs perfused with human blood
Procedure: […] piglets (4-6 kg) were used in an established in situ ex vivo isolated lung perfusion model. Piglet lungs were perfused with unmodified human blood or blood treated with either aurintricarboxylic acid (ATA, 0.5 mg/mL; GPIb inhibitor), SC52012A (SC, 0.2 μg/mL; GPIIb/IIIa antagonist, G.D. Searle & Co. of Chicago, Ill.), or both. Thus, experimental groups received either 500 mg of ATA, 200 μg of SC52012A, or both drugs added to fresh human blood perfusate (pooled from three donors) prior to lung perfusion, while control groups received unmodified blood.
Pulmonary vascular resistance (PVR) was calculated from pulmonary artery land vein pressures and flow. Pulmonary vein effluent was collected serially for comparison of complement activation (C3a), mast cell activation (histamine) and thromboxane production (TXB2) between groups. Survival endpoints were loss of transpulmonary flow, loss of oxygenation across the lungs, frank tracheal edema, and loss of perfusate volume (˜1L) into lung parenchyma.

complement (C3a, C5b-9) = conditions: for C3a Mean: mean of two samples; for C3a / C5b-9: single sample
Procedure: Platelet poor plasma (PPP—Example 4) and platelet rich plasma (PRP—Example 5) was prepared from human heparinized blood. Human plasma was treated with ATA (0.5 mg/ml), SC (0.5 μg/ml), ATA+SC, bivalirudin (HIRULOG®, 0.1 g/L), or water (negative control) and then incubated in presence of zymosan (10 mg/mL) or cobra venom factor (CVF, 1 or 5 U/mL) to activate complement (negative control is water), for one hour at 37° C. with shaking. Then, the samples were subjected to centrifugation at 10,000 g for 45 minutes. The supernatant was then frozen in small aliquots at −70° C. C3a and C5b-9 levels were then assayed using commercial ELISA kits (Quidel).

[2] = system: piglet lungs perfused with heparinized human blood
Procedure: In an established in situ, ex vivo model, piglet lungs were perfused with either heparinized (3,000 U/L) human blood or with blood additionally pretreated with 140 mg/L of bivalirudin (a semisynthetic analogue of hirudin). Pulmonary vein effluent was collected serially for measurement of complement activation (C3a), mast cell activation (histamine), and thrombin formation (F1+2). Survival endpoints were loss of transpulmonary blood flow, loss of oxygenation across the lungs, and sequestration of perfusate volume (˜1 L) into the lung. Statistical comparisons were made using the 2-tailed t-test.

[3] = PPP, CVF 1U, listed as HIRULOG ®

O=C(O)C1=CC(=C(c2ccc(O)c(C(=O)O)c2)c2ccc(O)c(C(=O)O)c2)C=CC1=O [ATA, aurintricarboxylic acid]
ΔC3a, 1 min, μg/mL (Mean ± SEM) ([1]; 1 min, pulmonary vein effluent): 0.30* μg/mL
Platelet sequestration at 10 min ([1]; 10 min, controls 89%): 51%
ΔC3a, 10 min, μg/mL (Mean ± SEM) ([1]; 10 min, pulmonary vein effluent): 1.81 µg/mL
median survival ([1]; control 12 min): 25 min
Median Survival in min (95% conf int) ([1]; pig lung perfused with human blood, ATA 0.5 mg/mL, SC 0.2 μg/mL): 25* min

bivalirudin
C5b-9 Mean (complement (C3a, C5b-9); PPP, CVF 1U): 917 ng/mL
C3a Mean (complement (C3a, C5b-9); PPP, CVF 1U): 1350 ng/mL
C3a (complement (C3a, C5b-9); [3]): 1250 ng/mL and 1450 ng/mL
C5b-9 (complement (C3a, C5b-9); [3]): 890 ng/mL and 943 ng/mL
C5b-9 Mean (complement (C3a, C5b-9); PPP, water (no activator)): 26 ng/mL
C3a Mean (complement (C3a, C5b-9); PPP, water (no activator)): 548 ng/mL
C5b-9 (complement (C3a, C5b-9); PPP, water (no activator)): 26 ng/mL
C3a (complement (C3a, C5b-9); PPP, water (no activator), 1 h 37° C., listed as HIRULOG ®): 590 ng/mL and 505 ng/mL
C5b-9 Mean (complement (C3a, C5b-9); PRP, CVF 1U): 842 ng/mL
C3a Mean (complement (C3a, C5b-9); PRP, CVF 1U): 1650 ng/mL
C5b-9 (complement (C3a, C5b-9); PRP, CVF 1U): 842 ng/mL
C3a (complement (C3a, C5b-9); PRP, CVF 1U, listed as HIRULOG ®): 1800 ng/mL and 1500 ng/mL
C5b-9 Mean (complement (C3a, C5b-9); PRP, water (no activator)): 126 ng/mL
C3a Mean (complement (C3a, C5b-9); PRP, water (no activator)): 435 ng/mL
C5b-9 (complement (C3a, C5b-9); PRP, water (no activator)): 126 ng/mL
C3a (complement (C3a, C5b-9); PRP, water (no activator), 1 h 37° C., listed as HIRULOG ®): 490 ng/mL and 380 ng/mL
thrombin production limited (as measured by F1+2) [2]: more than 90%
ΔC3a 1 min μg/ml (± SEM) ([2]; 1 min): 0.82 (0.8)* μg/ml
PVR cm H2O/mL/min 5 min (± SEM) ([2]; 5 min): 0.16 (.05)* cm H2O/mL/min
Δ histamine 10 min nM (± SEM) ([2]; 10 min): 21 (4)* nM
ΔC3a 10 min μg/ml (± SEM) ([2]; 10 min): 1.97 (1) μg/ml
ΔF1 + 2 10 min nM (± SEM) ([2]; 10 min, thrombin formation): 0.5 (0.8)* nM
Survival Min (± SEM) ([2]; bivalirudin 140 mg/L in heparinized human blood): 77 (22)* Min
mean survival ([2]; control 8 minutes): 77 min
Complement activation ([2]; in words): significantly blunted
histamine release ([2]; in words): significantly decreased
intrapulmonary platelet sequestration ([2]; in words): significantly blunted
rise in PVR ([2]; in words): significantly decreased
